Measured values reported in patent US20170190671A1, “BIS(ARYL)CATECHOL DERIVATIVES AS HERBICIDES” (E I DU PONT DE NEMOURS AND COMPANY, priority 2014, published 2017).

Assays:
Type in all cases: in vivo
[1] = tested on: giant foxtail (Setaria faberii); experiment: Test A preemergence; details: Setaria faberi, pre-emergence, 240 h, 0 to 100 scale, read-out: Plant response rating, Foxtail, Giant
Method in brief: (§1)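 Pre- and postemergence greenhouse screen. Soil: loam + sand. Spray carrier: solvent mixture, non-phytotoxic, with surfactant. Post timing at 1–2 leaves, height 2–10 cm. Readout: visual injury on a 0–100 scale roughly 10 days after application, untreated plants as reference.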

[2] = tested on: Italian ryegrass (Lolium multiflorum); experiment: Test A preemergence; details: Lolium multiflorum, pre-emergence, 240 h, 0 to 100 scale, read-out: Plant response rating, Ryegrass, Italian
Method in brief: as §1

[3] = tested on: pigweed (Amaranthus retroflexus); experiment: Test A preemergence; details: Amaranthus retroflexus, pre-emergence, 240 h, 0 to 100 scale, read-out: Plant response rating, Pigweed
Method in brief: as §1

kochia (Kochia scoparia) [4] = experiment: Test A preemergence; details: Bassia scoparia, pre-emergence, 240 h, 0 to 100 scale, read-out: Plant response rating, Kochia
Method in brief: as §1

[5] = tested on: ragweed (common ragweed, Ambrosia elatior); experiment: Test A preemergence; details: Ambrosia artemisiifolia, pre-emergence, 240 h, 0 to 100 scale, read-out: Plant response rating, Ragweed
Method in brief: as §1

[6] = tested on: barnyardgrass (Echinochloa crus-galli); experiment: Test A preemergence; details: Echinochloa crus-galli, pre-emergence, 240 h, 0 to 100 scale, read-out: Plant response rating, Barnyardgrass
Method in brief: as §1

[7] = tested on: sedge, umbrella (small-flower umbrella sedge, Cyperus difformis); experiment: Test B flooded paddy; details: Cyperus difformis, 336 h; 250 g ai/ha, Flood, 13 to 15 days, scale 0 (no effect) to 100 (complete control); read-out: Plant response rating, Sedge, Umbrella
Method in brief: (§2)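 Greenhouse pots flooded to 3 cm above soil at time of treatment received compound via the water, which stayed at that level.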

[8] = tested on: ducksalad (Heteranthera limosa); experiment: Test B flooded paddy; details: Heteranthera limosa, 336 h; 250 g ai/ha, Flood, 13 to 15 days, scale 0 (no effect) to 100 (complete control); read-out: Plant response rating, Ducksalad
Method in brief: as §2

rice (Oryza sativa) = experiment: Test B flooded paddy; details: Oryza sativa, 336 h; 250 g ai/ha, Flood, 13 to 15 days, scale 0 (no effect) to 100 (complete control); read-out: Plant response rating, Rice
Method in brief: as §2

[9] = tested on: barnyardgrass (Echinochloa crus-galli); experiment: Test B flooded paddy; details: Echinochloa crus-galli, 336 h; 250 g ai/ha, Flood, 13 to 15 days, scale 0 (no effect) to 100 (complete control); read-out: Plant response rating, Barnyardgrass
Method in brief: as §2

[10] = tested on: Italian ryegrass (Lolium multiflorum); experiment: Test C postemergence; details: Lolium multiflorum, post-emergence, 336 h, Postemergence, scale 0 to 100, read-out: Plant response rating, Ryegrass, Italian
Text: (§3) Seeds of plant species selected from blackgrass (Alopecurus myosuroides), Italian ryegrass (Lolium multiflorum), winter wheat (Triticum aestivum), galium (catchweed bedstraw, Galium aparine), corn (Zea mays), large (Lg) crabgrass (Digitaria sanguinalis), giant foxtail (Setaria faberii), johnsongrass (Sorghum halepense), lambsquarters (Chenopodium album), morningglory (Ipomoea coccinea), yellow nutsedge (Cyperus esculentus), pigweed (Amaranthus retroflexus), ragweed (common ragweed, Ambrosia elatior), soybean (Glycine max), barnyardgrass (Echinochloa crus-galli), oilseed rape (Brassica napus), waterhemp (common waterhemp, Amaranthus rudis), and velvetleaf (Abutilon theophrasti) were planted into a blend of loam soil and sand and treated preemergence with test chemicals formulated in a non-phytotoxic solvent mixture which included a surfactant.
(§4) At the same time, plants selected from these crop and weed species and also chickweed (common chickweed, Stellaria media), kochia (Kochia scoparia), and wild oat (Avena fatua), were planted in pots containing Redi-Earth® planting medium (Scotts Company, 14111 Scottslawn Road, Marysville, Ohio 43041) comprising spaghnum peat moss, vermiculite, wetting agent and starter nutrients and treated with postemergence applications of test chemicals formulated in the same manner. Plants ranged in height from 2 to 18 cm (1- to 4-leaf stage) for postemergence treatments. Treated plants and controls were maintained in a greenhouse for 13 to 15 days, after which time all species were compared to controls and visually evaluated. Plant response ratings, summarized in Table C, are based on a scale of 0 to 100 where 0 is no effect and 100 is complete control. A dash (-) response means no test result.

wild oat (Avena fatua) = experiment: Test C postemergence; details: Avena fatua, post-emergence, Postemergence, scale 0 to 100, read-out: Plant response rating, Oat, Wild
Text: as §3, §4

[11] = tested on: blackgrass (Alopecurus myosuroides); experiment: Test A postemergence; details: Alopecurus myosuroides, post-emergence, 240 h, 0 to 100 scale, read-out: Plant response rating, Blackgrass
Method in brief: as §1

[12] = tested on: giant foxtail (Setaria faberii); experiment: Test A postemergence; details: Setaria faberi, post-emergence, 240 h, 0 to 100 scale, read-out: Plant response rating, Foxtail, Giant
Method in brief: as §1

[13] = tested on: wheat (Triticum aestivum); experiment: Test A postemergence; details: Triticum aestivum, post-emergence, 240 h, 0 to 100 scale, read-out: Plant response rating, Wheat
Method in brief: as §1

[14] = tested on: Italian ryegrass (Lolium multiflorum); experiment: Test A postemergence; details: Lolium multiflorum, post-emergence, 240 h, 0 to 100 scale, read-out: Plant response rating, Ryegrass, Italian
Method in brief: as §1

corn (Zea mays) = experiment: Test A postemergence; details: Zea mays, post-emergence, 240 h, 0 to 100 scale
Method in brief: as §1

[15] = tested on: pigweed (Amaranthus retroflexus); experiment: Test A postemergence; details: Amaranthus retroflexus, post-emergence, 240 h, 0 to 100 scale, read-out: Plant response rating, Pigweed
Method in brief: as §1

kochia (Kochia scoparia) [16] = experiment: Test A postemergence; details: Bassia scoparia, post-emergence, 240 h, 0 to 100 scale, read-out: Plant response rating, Kochia
Method in brief: as §1

[17] = tested on: ragweed (common ragweed, Ambrosia elatior); experiment: Test A postemergence; details: Ambrosia artemisiifolia, post-emergence, 240 h, 0 to 100 scale, read-out: Plant response rating, Ragweed
Method in brief: as §1

[18] = tested on: galium (catchweed bedstraw, Galium aparine); experiment: Test A postemergence; details: Galium, post-emergence, 240 h, 0 to 100 scale, read-out: Plant response rating, Galium
Method in brief: as §1

[19] = tested on: barnyardgrass (Echinochloa crus-galli); experiment: Test A postemergence; details: Echinochloa crus-galli, post-emergence, 240 h, 0 to 100 scale, read-out: Plant response rating, Barnyardgrass
Method in brief: as §1

## N#Cc1cccc(Oc2ncc(Cl)cn2)c1Oc1ncc(Br)cn1 [Compound 4, 2-[(5-bromo-2-pyrimidinyl)oxy]-3-[(5-chloro-2-pyrimidinyl)oxy]benzonitrile]
[1]; 125 g ai/ha
  pest or weed control at 125 g/ha: 100%
[1]; 500 g ai/ha
  pest or weed control at 500 g/ha: 100%
[2]; 125 g ai/ha
  pest or weed control at 125 g/ha: 20%
[2]; 500 g ai/ha
  pest or weed control at 500 g/ha: 100%
[3]; 125 g ai/ha
  pest or weed control at 125 g/ha: 100%
[3]; 500 g ai/ha
  pest or weed control at 500 g/ha: 100%
Kochia (Kochia scoparia) [4]; 125 g ai/ha
  pest or weed control at 125 g/ha: 90%
Kochia (Kochia scoparia) [4]; 500 g ai/ha
  pest or weed control at 500 g/ha: 100%
[5]; 125 g ai/ha
  pest or weed control at 125 g/ha: 80%
[5]; 500 g ai/ha
  pest or weed control at 500 g/ha: 100%
[6]; 125 g ai/ha
  pest or weed control at 125 g/ha: 70%
[6]; 500 g ai/ha
  pest or weed control at 500 g/ha: 100%
[7]
  pest or weed control at 250 g/ha: 80%
[8]
  pest or weed control at 250 g/ha: 95%
Rice (Oryza sativa)
  plant injury at 250 g/ha: 0%
[9]
  pest or weed control at 250 g/ha: 0%
[10]; 31 g ai/ha
  pest or weed control at 31 g/ha: 0%
[10]; 62 g ai/ha
  pest or weed control at 62 g/ha: 0%
[10]; 125 g ai/ha
  pest or weed control at 125 g/ha: 5%
Wild oat (Avena fatua); 31 g ai/ha
  pest or weed control at 31 g/ha: 5%
Wild oat (Avena fatua); 62 g ai/ha
  pest or weed control at 62 g/ha: 10%
Wild oat (Avena fatua); 125 g ai/ha
  pest or weed control at 125 g/ha: 10%
[11]; 125 g ai/ha
  pest or weed control at 125 g/ha: 100%
[11]; 500 g ai/ha
  pest or weed control at 500 g/ha: 100%
[12]; 125 g ai/ha
  pest or weed control at 125 g/ha: 100%
[12]; 500 g ai/ha
  pest or weed control at 500 g/ha: 100%
[13]; 125 g ai/ha
  plant injury at 125 g/ha: 50%
[13]; 500 g ai/ha
  plant injury at 500 g/ha: 100%
[14]; 125 g ai/ha
  pest or weed control at 125 g/ha: 100%
[14]; 500 g ai/ha
  pest or weed control at 500 g/ha: 100%
Corn (Zea mays); 125 g ai/ha
  Corn plant response rating (crop injury, 0 = no effect, 100 = complete kill) at 125 g/ha: 80%
Corn (Zea mays); 500 g ai/ha
  Corn plant response rating (crop injury, 0 = no effect, 100 = complete kill) at 500 g/ha: 100%
[15]; 125 g ai/ha
  pest or weed control at 125 g/ha: 100%
[15]; 500 g ai/ha
  pest or weed control at 500 g/ha: 100%
Kochia (Kochia scoparia) [16]; 125 g ai/ha
  pest or weed control at 125 g/ha: 100%
Kochia (Kochia scoparia) [16]; 500 g ai/ha
  pest or weed control at 500 g/ha: 100%
[17]; 125 g ai/ha
  pest or weed control at 125 g/ha: 100%
[17]; 500 g ai/ha
  pest or weed control at 500 g/ha: 100%
[18]; 125 g ai/ha
  pest or weed control at 125 g/ha: 100%
[18]; 500 g ai/ha
  pest or weed control at 500 g/ha: 100%
[19]; 125 g ai/ha
  pest or weed control at 125 g/ha: 100%
[19]; 500 g ai/ha
  pest or weed control at 500 g/ha: 100%
